pIC50: −log10 of the molar value. Read-outs that look alike come from different tables or passages of the source. Each block holds one compound with its values, some of them ahead of it.
Tests used:
[1] = Various In Vitro Cell Biology Assays (Example 41, Tables 23-26); format: cell-based; details: for % Inhibition of Control Values / inhibition at 3 µM / cytotoxicity at 24 h: 3×10^−6 M; for inhibition at 3 µM: PBMC, read-out: % Inhibition of Control Values; for cytotoxicity at 24 h: human, Cell viability (h) (PBMC/24 h), MTT; for pIC50: TNF-α secretion (h) (PBMC)
Description: In each experiment, the respective reference compound was tested concurrently with the test compounds in order to assess the assay suitability. It was tested at several concentrations (for IC50 value determination).
The test compounds were assayed at 3×10^−6 M.
Results. The results are expressed as a percent of control values and as a percent inhibition of control values obtained in the presence of the test compounds.
The IC50 values (concentration causing a half-maximal inhibition of control values) and Hill coefficients (nH) were determined by non-linear regression analysis of the inhibition curves using Hill equation curve fitting, a summary of the data is shown in Table 26. The IC50 value for each reference compound is indicated was determined (data not shown) and was within accepted limits of the historic average ±0.5 log units.

[2] = system: chronic colitis provoked by trinitrobenzene sulphonic acid (TNBS); assay: Rat model of chronic colitis provoked by TNBS over 14 days, treatment from Day 1; format: in vivo; details: for macroscopic Damage Score / reduction in colon weight / reduction in colonic MPO activity / reduction in colonic TNF-α levels / reduction in colonic lesion area (% of the total area measured): Day 14; for reduction in colon weight / reduction in colonic MPO activity / reduction in colonic TNF-α levels / reduction in colonic lesion area (% of the total area measured) / attenuation of TNBS-induced fall in body weight (% change of body weight at Day −1): vs CMC group; for attenuation of TNBS-induced fall in body weight (% change of body weight at Day −1): over 14 days
From the text: In the chronic model of colitis, assessment of the colonic inflammation is made 14 days or longer, after the intracolonic challenge with TNBS (Boughton-Smith et al, 1988a, 1988b; Wallace et al, 1989; Rachmilewitz et al, 1989; Wallace and Keenan, 1990; Ameho et al, 1987; Sans et al, 1999; Sun et al, 2001; Maric et al, 2003; Moreels et al, 2004; Gonzalez et al, 2004). This model allows treatment with experimental agents to commence following the establishment of the colonic injury, typically 24 hours after the TNBS challenge (Galvez et al, 2000, Villegas, 2003, Gonzalez et al, 2004). The model should therefore identify the ability of the experimental compounds to accelerate the diminution of the inflammatory response and to promote healing of the colonic lesions. This model thus has relevance additional to the acute model, as the clinical correlate is the therapeutic intervention in patients with existing IBD not in remission or with flare-up, to reduce the crisis. This contrasts with the acute TNBS model where the compounds are administered one or two days prior to challenge, the clinical correlate being the use of prophylactic therapy to prevent flare-up and maintain remission in IBD patients.
In this current study, the low intracolonic challenge concentration of TNBS used in the acute studies was also used for the chronic study over a 14 day period. This concentration and timing was based on the findings from pilot studies where a range of concentrations of TNBS and treatment conditions were evaluated over a 14 day period. […].
The methods and protocol used were substantially similar to those in Example 39-40, with some differences described below.
TNBS Challenge. Male Wistar rats (average body weight, 210 g) were randomised into groups before commencement of the study. In all groups, including the non-challenged and non-treated absolute control group, food was withdrawn for 12 h before TNBS administration (i.e. overnight on Day −1), but the rats were allowed free access to drinking water.
On the morning of the day of challenge (Day 0, between 9.00 and 1 1.00 a.m.), the rats were transiently anaesthetised with ether and the TNBS solution (10 mg in 0.25 ml of 50% ethanol) was instilled approximately 6-8 cm into the colon using a soft plastic catheter inserted in the rat rectum. The rats were allowed to recover with free access to food and drinking water. At the end of the experiment, on the morning of Day 14, between 9.00 and 11.00), the colon was dissected, and the distal 8 cm photographed and immediately processed or stored appropriately for subsequent analyses.
The following primary parameters were measured in the study: macroscopic scoring of distal 8 cm of colon; myeloperoxidase levels in segments of distal 8 cm of colon; TNF-α levels in segments of distal 8 cm of colon.
In addition, the weight of the standard colonic segment was assessed as an indirect and non-specific marker of oedema. The body weight of the animals was also determined each evening of the study, starting on Day-1, and also on the morning of Day 14. The data is shown graphically as the % change from the weight on Day-1, prior to challenge.
Treatments. The TNBS challenged groups for study were: (a) Vehicle control 0.5% carboxy methyl cellulose (CMC) p.o., twice daily from Day; (b) CCI-7506 25 mg/kg, p.o., twice daily from Day 1 (50 mg/kg/day total); (c) CCI-7506 50 mg/kg, p.o., twice daily from Day 1 (100 mg/kg/day total); (d) CCI-7507 12.5 mg/kg, p.o., twice daily from Day 1 (25 mg/kg/day total); (e) CCI-7507 25 mg/kg, p.o., twice daily from Day 1(50 mg/kg/day total); […]; (g) Infliximab 3 mg/kg, single slow i.v. injection, on Day 1 and Day7.
The experimental compounds that were administered orally were given twice a day from Day 1, i.e. 24 h following TNBS administration, for the remainder of the 14 day experimental period. Infliximab was administered by slow i.v. injection of Day 1 and on Day 7. […]

[3] = IL-6 secretion (h) (PBMC), LPS 1 μg/ml, 24 h
[4] = 24 h, IL-8 secretion (h) (PBMC), LPS 1 μg/ml, 24 h
[5] = 48 h, IL-10 secretion (h) (PBMC), PHA 3 μg/ml, 48 h
[6] = 48 h, IL-2 secretion (h) (PBMC), PHA 20 μg/ml, 48 h
[7] = 48 h, IL-4 secretion (h) (PBMC), ConA 20 μg/ml, 48 h
[8] = 24 h, IFN-γ secretion (h) (PBMC), PHA 2 μg/ml, 24 h
[9] = 24 h, IL-1 □ secretion (h) (PBMC), LPS 1 μg/ml, 24 h
[10] = 24 h, IL-6 secretion (h) (PBMC), LPS 1 μg/ml, 24 h

Compound: OB(O)CCCCCn1c(-c2cscn2)nc2ccccc21 [CCI-7034]
- % Inhibition of Control Values [1, 3]: −89%
- inhibition at 3 µM [1, 4]: -32%
- inhibition at 3 µM [1, 5]: 42%
- cytotoxicity at 24 h [1]: -9%

Compound: N#Cc1ncnc2c1ncn2CCCCCB(O)O [CCI-7048]
- inhibition at 3 µM [1, 6]: 23%
- inhibition at 3 µM [1, 7]: -45%

Compound: N#Cc1ccc2c(ccn2CCCCCB(O)O)c1 [CCI-7506]
- macroscopic Damage Score ([2]; 50 mg/kg/day p.o. from Day 1): reduced the damage score
- reduction in colon weight ([2]; 50 mg/kg/day p.o. from Day 1): caused a significant reduction in the colon weight
- reduction in colonic MPO activity ([2]; 50 mg/kg/day p.o. from Day 1): caused a significant fall in the elevated MPO activity
- reduction in colonic TNF-α levels ([2]; 50 mg/kg/day p.o. from Day 1): no significant effect on the colonic TNF-α levels
- reduction in colonic lesion area (% of the total area measured) ([2]; 50 mg/kg/day p.o. from Day 1): statistically significant for both doses
- attenuation of TNBS-induced fall in body weight (% change of body weight at Day −1) ([2]; 50 mg/kg/day p.o. in divided doses from Day 1): significantly different from those in the challenged CMC control group on Days 2 to 10 and also on Days 13 and 14
- macroscopic Damage Score ([2]; 100 mg/kg/day p.o. from Day 1): reduced the damage score
- reduction in colon weight ([2]; 100 mg/kg/day p.o. from Day 1): caused a significant reduction in the colon weight
- reduction in colonic MPO activity ([2]; 100 mg/kg/day p.o. from Day 1): caused a significant fall in the elevated MPO activity
- reduction in colonic TNF-α levels ([2]; 100 mg/kg/day p.o. from Day 1): did achieve significance
- reduction in colonic lesion area (% of the total area measured) ([2]; 100 mg/kg/day p.o. from Day 1): statistically significant for both doses
- attenuation of TNBS-induced fall in body weight (% change of body weight at Day −1) ([2]; 100 mg/kg/day p.o. in divided doses from Day 1): significantly different from the CMC group on Days 2, 3 and 4

Compound: OB(O)CCCCCn1c(-c2cscn2)nc2ccccc21 [drawing 69]
- inhibition at 3 µM [1, 8]: 21%

Compound: N#Cc1ccc2c(ccn2CCCCCB(O)O)c1 [drawing 70]
- inhibition at 3 µM [1, 8]: 16%

Compound: OB(O)CCCCn1c(C(F)(F)F)nc2ccccc21 [drawing 71]
- inhibition at 3 µM [1, 8]: -6%

Compound: C[C@@H]1CC2C3CCC4=CC(=O)C=CC4(C)C3(F)[C@@H](O)CC2(C)C1(O)C(=O)CO (some centres unmarked) [drawing 72]
- inhibition at 3 µM [1, 8]: 68%

Compound: Nc1nc(Cl)c2ncn(CCCCCB(O)O)c2n1 [drawing 73]
- inhibition at 3 µM [1, 8]: 56%

Compound: N#Cc1ncnc2c1ncn2CCCCCB(O)O [drawing 74]
- inhibition at 3 µM [1, 8]: 14%

Compound: OB(O)CCCCCn1c(-c2cscn2)nc2ccccc21 [drawing 75]
- inhibition at 3 µM [1, 9]: -67%

Compound: C[C@@H]1CC2C3CCC4=CC(=O)C=CC4(C)C3(F)[C@@H](O)CC2(C)C1(O)C(=O)CO (some centres unmarked) [drawing 78]
- inhibition at 3 µM [1, 9]: -12%

Compound: N#Cc1ncnc2c1ncn2CCCCCB(O)O [drawing 79]
- inhibition at 3 µM [1, 9]: -66%

Compound: OB(O)CCCCCn1c(-c2cscn2)nc2ccccc21 [drawing 81]
- inhibition at 3 µM [1, 6]: 56%

Compound: OB(O)CCCCn1c(C(F)(F)F)nc2ccccc21 [drawing 82]
- inhibition at 3 µM [1, 6]: 72%

Compound: C[C@@H]1CC2C3CCC4=CC(=O)C=CC4(C)C3(F)[C@@H](O)CC2(C)C1(O)C(=O)CO (some centres unmarked) [drawing 83]
- inhibition at 3 µM [1, 6]: 18%

Compound: Nc1nc(Cl)c2ncn(CCCCCB(O)O)c2n1 [drawing 84]
- inhibition at 3 µM [1, 6]: 78%

Compound: C[C@@H]1CC2C3CCC4=CC(=O)C=CC4(C)C3(F)[C@@H](O)CC2(C)C1(O)C(=O)CO (some centres unmarked) [drawing 88]
- inhibition at 3 µM [1, 7]: 118%

Compound: Nc1nc(Cl)c2ncn(CCCCCB(O)O)c2n1 [drawing 89]
- inhibition at 3 µM [1, 7]: -30%

Compound: OB(O)CCCCCn1c(-c2cscn2)nc2ccccc21 [drawing 90]
- % Inhibition of Control Values [1, 3]: −61%

Compound: OB(O)CCCCn1c(C(F)(F)F)nc2ccccc21 [drawing 91]
- inhibition at 3 µM [1, 10]: -26%

Compound: C[C@@H]1CC2C3CCC4=CC(=O)C=CC4(C)C3(F)[C@@H](O)CC2(C)C1(O)C(=O)CO (some centres unmarked) [drawing 92]
- % Inhibition of Control Values [1, 3]: 57%

Compound: C[C@@H]1CC2C3CCC4=CC(=O)C=CC4(C)C3(F)[C@@H](O)CC2(C)C1(O)C(=O)CO (some centres unmarked) [drawing 93]
- % Inhibition of Control Values [1, 3]: −70%

Compound: N#Cc1ncnc2c1ncn2CCCCCB(O)O [drawing 94]
- inhibition at 3 µM [1, 10]: -30%

Compound: N#Cc1ccc2c(ccn2CCCCCB(O)O)c1 [drawing 95]
- inhibition at 3 µM [1, 5]: 36%

Compound: OB(O)CCCCn1c(C(F)(F)F)nc2ccccc21 [drawing 96]
- inhibition at 3 µM [1, 5]: 17%

Compound: C[C@@H]1CC2C3CCC4=CC(=O)C=CC4(C)C3(F)[C@@H](O)CC2(C)C1(O)C(=O)CO (some centres unmarked) [drawing 97]
- inhibition at 3 µM [1, 5]: 62%

Compound: N#Cc1ncnc2c1ncn2CCCCCB(O)O [drawing 99]
- inhibition at 3 µM [1, 5]: 13%

Compound: N#Cc1ccc2c(ccn2CCCCCB(O)O)c1 [drawing 100]
- inhibition at 3 µM [1, 4]: -63%

Compound: OB(O)CCCCn1c(C(F)(F)F)nc2ccccc21 [drawing 101]
- inhibition at 3 µM [1, 4]: -29%

Compound: C[C@@H]1CC2C3CCC4=CC(=O)C=CC4(C)C3(F)[C@@H](O)CC2(C)C1(O)C(=O)CO (some centres unmarked) [drawing 102]
- inhibition at 3 µM [1, 4]: 67%

Compound: Nc1nc(Cl)c2ncn(CCCCCB(O)O)c2n1 [drawing 103]
- inhibition at 3 µM [1, 4]: 8%

Compound: N#Cc1ncnc2c1ncn2CCCCCB(O)O [drawing 104]
- inhibition at 3 µM [1, 4]: -33%

Compound: N#Cc1ccc2c(ccn2CCCCCB(O)O)c1 [drawing 105]
- cytotoxicity at 24 h [1]: 0%

Compound: OB(O)CCCCn1c(C(F)(F)F)nc2ccccc21 [drawing 106]
- cytotoxicity at 24 h [1]: -6%

Compound: C[C@@H]1CC2C3CCC4=CC(=O)C=CC4(C)C3(F)[C@@H](O)CC2(C)C1(O)C(=O)CO (some centres unmarked) [drawing 107]
- cytotoxicity at 24 h [1]: 6%

Compound: Nc1nc(Cl)c2ncn(CCCCCB(O)O)c2n1 [drawing 108]
- cytotoxicity at 24 h [1]: 6%

Compound: N#Cc1ncnc2c1ncn2CCCCCB(O)O [drawing 109]
- cytotoxicity at 24 h [1]: 5%

Compound: COc1ccc(-c2nc3ccccc3n2CCCCCB(O)O)cc1 [drawing 110]
- pIC50 ([1]; LPS 1 μg/ml, 24 h): 6.70

- pIC50 ([1]; LPS 1 μg/ml, 24 h): < 5.52
Compound: OB(O)CCCCCn1c(-c2cscn2)nc2ccccc21 [drawing 111]

Compound: N#Cc1ccc2c(ccn2CCCCCB(O)O)c1 [drawing 112]
- pIC50 ([1]; LPS 1 μg/ml, 24 h): 5.82

- pIC50 ([1]; LPS 1 μg/ml, 24 h): 7.44
Compound: C[C@@H]1CC2C3CCC4=CC(=O)C=CC4(C)C3(F)[C@@H](O)CC2(C)C1(O)C(=O)CO (some centres unmarked) [drawing 114]
